# Data taken from patent publication US20230250123A1, “GUT MICROBIOTA BIOACTIVATED PDE4 INHIBITOR PRECURSORS” (Giiant Pharma Inc., priority 2020, published 2023).
# Columns and labels:
# [1] = In vitro rate of glycoside prodrug hydrolysis in feces supernatant, rat; format: in vitro ADME; settings: 100 µM, 37° C., pH 6.5, 24 hr
# Protocol: In vitro rate of glycoside prodrugs hydrolysis. The metabolic stability of prodrug candidates to release the parent PDE4 inhibitor could be assessed in vitro according, but not restricted, to the following protocol: feces were collected overnight on a mixture of dry and wet ice in a metabolic cage. Ten volumes (v/w; 30 mL) of 100 mM phosphate buffer (pH 6.5) were added to 3 g of freshly collected rodent feces. The mixture was homogenized with a Stomacher Circulator 400 (2 × 1 min-cycles at 225 rpm). The mixture was transferred to a 50 mL tubes, centrifuged at 10 000xg for 10 min (4° C.) and the supernatant was passed through a 0.45 µm-filter. In a 96 deep-well plate, 198 µL of feces supernatant were aliquoted in 2 wells per compound. Each compound, including positive control, was tested in duplicate. Then 2 µL of 10 mM stock solution of each test compound were spiked in individual wells (duplicate) at a final concentration of 100 µM and samples were sealed and mixed 30 sec at 1000 rpm using a vortexer. Samples were incubated at 37° C. for the desired time in the Thermomixer with constant agitation (300 rpm). At desired time-point, 25 µL of reaction mixture was added to 225 µL of ice-cold quenching solution (acetonitrile + 0.1% (v/v) formic acid) to stop the bacterial enzymatic activity. The quenched incubates were mixed and centrifuged 10 min at 21 000xg at 4° C. A real t0 (no metabolism, 100% total recovery of unchanged prodrug) was generated by adding 22.5 µL of feces supernatant to 225 µL of ice-cold quenching solution (acetonitrile + 0.1% (v/v) formic acid). Then 2.5 µL of 1 mM solution of each test compounds was added, sealed, mixed thoroughly and centrifuged 10 min at 21 000xg at 4° C. All samples, including analytical standards, were analyzed by LC-MS/MS to measure the concentration of the parent PDE4 inhibitor released and the concentration of the corresponding prodrug remaining. A set criteria of 100% recovery is targeted where the summation of the % of prodrug remaining and the % of parent PDE4 inhibitor released should be 100% with an experimental error tolerance of ± 20%. When prodrugs represented by Formula (I) were incubated 24 hours under the conditions described above using mouse, rat and dog feces, the glycoside prodrugs were hydrolyzed to release the corresponding parent PDE4 inhibitor III (Table 3). As a negative control, when compound 4, 10 and 21 were incubated 24 hours under the conditions described above but in the absence of enzyme activities, using mouse feces extract supernatant inactivated by boiling the supernatant 10 minutes, 100% of the prodrugs were recovered unchanged.
# [2] = Bidirectional Caco-2 permeability assay; format: in vitro ADME; settings: human; Caco-2, 10 µM, apical pH 6.0 / basolateral pH 7.4, average of 2 determinations
# Protocol: In vitro glycoside prodrug permeability assessment. The permeability of the glycoside prodrugs were measured using the bidirectional Caco-2 assay. Caco-2 cells were seeded onto permeable polycarbonate supports in 12-well Costar Transwell plates and allowed to grow and differentiate for 21-25 days. On day 24, culture medium (DMEM supplemented with 10% FBS, 1% non-essential amino acids and penicillin/streptomycin) was removed from both sides of the transwell inserts and cells were rinsed with warm HBSS. […] The buffer in the donor chamber (apical side for A-to-B assay, basolateral side for B-to-A assay) was removed and replaced with the working solution (10 µM test article in transport buffer). The plates were then placed at 37° C. under light agitation. At designated time points (30, 60 and 90 min); an aliquot of transport buffer from the receiver chamber was removed and replenished with fresh transport buffer. Samples were quenched with ice-cold CH3CN containing internal standard and then centrifuged to precipitate the protein. Resulting supernatants were further diluted with 50/50 ACN/H2O (H2O only for Atenolol) and submitted for LC/MS/MS analysis. […] Atenolol and propranolol were tested as low and […] permeability references. […] The apparent permeability (Papp, measured in cm/s) of a compound is determined according to the following formula: […]
# Where dQ/dt is the net rate of appearance in the receiver compartment, A is the area of the Transwell measured in cm^2 (1.12 cm^2), C0 is the initial concentration of compound added to the donor chamber and 60 is the conversion factor for the minute to second.
Structure (SMILES),Prodrug Remaining @ 24 hr (%) [1] [%],Papp A→B at 10 µM [2] [×10⁻⁶ cm/s]
"OC[C@H]1O[C@@H](Oc2ccc(C[C@@H](c3ccc(OC(F)F)c(OC4CC4)c3)c3cnc(C(O)(C(F)(F)F)C(F)(F)F)s3)cn2)[C@H](O)[C@@H](O)[C@@H]1O [Compound 2, (2S,3R,4S,5S,6R)-2-((5-((S)-2-(3-cyclopropoxy-4-(difluoromethoxy)phenyl)-2-(2-(1,1,1,3,3,3-hexafluoro-2-hydroxypropan-2-yl)thiazol-5-yl)ethyl)pyridin-2-yl)oxy)-6-(hydroxymethyl)tetrahydro-2 H-pyran-3,4,5-triol]",0.5,0.07
"CC(=O)OC[C@H]1O[C@@H](Oc2ccc(C[C@H](c3ccc(C(C)(C)O)nc3)c3ccc(OC(F)F)c(OC4CC4)c3)cn2)[C@H](OC(C)=O)[C@@H](OC(C)=O)[C@@H]1OC(C)=O [Compound 3, (2R,3R,4S,5R,6S)-2-(acetoxymethyl)-6-((5-((S)-2-(3-cyclopropoxy-4-(difluoromethoxy)phenyl)-2-(6-(2-hydroxypropan-2-yl)pyridin-3-yl)ethyl)pyridin-2-yl)oxy)tetrahydro-2H-pyran-3,4,5-triyl triacetate]",0.1,1.4
"COC(=O)[C@H]1O[C@@H](Oc2ccc(C[C@@H](c3ccc(OC(F)F)c(OC4CC4)c3)c3cnc(C(O)(C(F)(F)F)C(F)(F)F)s3)cn2)[C@H](OC(C)=O)[C@@H](OC(C)=O)[C@@H]1OC(C)=O [Compound 6, (2S,3R,4S,5S,6S)-2-((5-((S)-2-(3-cyclopropoxy-4-(difluoromethoxy)phenyl)-2-(2-(1,1,1,3,3,3-hexafluoro-2-hydroxypropan-2-yl)thiazol-5-yl)ethyl)pyridin-2-yl)oxy)-6-(methoxycarbonyl)tetrahydro-2H-pyran-3,4,5-triyl triacetate]",23,
"COC(=O)[C@H]1O[C@@H](Oc2ccc(C[C@@H](c3ccc(OC(F)F)c(OC4CC4)c3)c3cnc(C(O)(C(F)(F)F)C(F)(F)F)s3)cn2)[C@H](O)[C@@H](O)[C@@H]1O [Compound 7, (2S,3S,4S,5R,6S)-methyl 6-((5-((S)-2-(3-cyclopropoxy-4-(difluoromethoxy)phenyl)-2-(2-(1,1,1,3,3,3-hexafluoro-2-hydroxypropan-2-yl)thiazol-5-yl)ethyl)pyridin-2-yl)oxy)-3,4,5-trihydroxytetrahydro-2H-pyran-2-carboxylate]",35,1
"COC(=O)[C@H]1O[C@@H](Oc2ccc(C[C@H](c3ccc(C(C)(C)O)nc3)c3ccc(OC(F)F)c(OC4CC4)c3)cn2)[C@H](OC(C)=O)[C@@H](OC(C)=O)[C@@H]1OC(C)=O [Compound 8, (2S,3R,4S,5S,6S)-2-((5-((S)-2-(3-cyclopropoxy-4-(difluoromethoxy)phenyl)-2-(6-(2-hydroxypropan-2-yl)pyridin-3-yl)ethyl)pyridin-2-yl)oxy)-6-(methoxycarbonyl)tetrahydro-2H-pyran-3,4,5-triyl triacetate]",,0.6
"CNC(=O)[C@H]1O[C@@H](Oc2ccc(C[C@@H](c3ccc(OC(F)F)c(OC4CC4)c3)c3cnc(C(O)(C(F)(F)F)C(F)(F)F)s3)cn2)[C@H](O)[C@@H](O)[C@@H]1O [Compound 15, (2S,3S,4S,5R,6S)-methyl 6-((5-((S)-2-(3-cyclopropoxy-4-(difluoromethoxy)phenyl)-2-(2-(1,1,1,3,3,3-hexafluoro-2-hydroxypropan-2-yl)thiazol-5-yl)ethyl)pyridin-2-yl)oxy)-3,4,5-trihydroxytetrahydro-2H-pyran-2-carboxamide]",74,1.5
"CC(=O)OC[C@H]1O[C@@H](Oc2ccc(C[C@H](c3ccc(C(C)(C)O)nc3)c3ccc(OC(F)F)c(OC4CC4)c3)cn2)[C@H](OC(C)=O)[C@@H](OC(C)=O)[C@H]1OC(C)=O [Compound 17, (2R,3S,4S,5R,6S)-2-(acetoxymethyl)-6-((5-((S)-2-(3-cyclopropoxy-4-(difluoromethoxy)phenyl)-2-(6-(2-hydroxypropan-2-yl)pyridin-3-yl)ethyl)pyridin-2-yl)oxy)tetrahydro-2H-pyran-3,4,5-triyl triacetate]",0.0,
"CC(C)(O)c1ccc([C@@H](Cc2ccc(O[C@@H]3O[C@H](CO)[C@H](O)[C@H](O)[C@H]3O)nc2)c2ccc(OC(F)F)c(OC3CC3)c2)cn1 [Compound 18, (2S,3R,4S,5R,6R)-2-((5-((S)-2-(3-cyclopropoxy-4-(difluoromethoxy)phenyl)-2-(6-(2-hydroxypropan-2-yl)pyridin-3-yl)ethyl)pyridin-2-yl)oxy)-6-(hydroxymethyl)tetrahydro-2H-pyran-3,4,5-triol]",0.0,0.1
"CC(=O)OC[C@H]1O[C@H](Oc2ccc(C[C@H](c3ccc(C(C)(C)O)nc3)c3ccc(OC(F)F)c(OC4CC4)c3)cn2)[C@@H](OC(C)=O)[C@@H](OC(C)=O)[C@@H]1OC(C)=O [Compound 19, (2R,3R,4S,5S,6R)-2-(acetoxymethyl)-6-((5-((S)-2-(3-cyclopropoxy-4-(difluoromethoxy)phenyl)-2-(6-(2-hydroxypropan-2-yl)pyridin-3-yl)ethyl)pyridin-2-yl)oxy)tetrahydro-2H-pyran-3,4,5-triyl triacetate]",0.7,
"CC(C)(O)c1ccc([C@@H](Cc2ccc(O[C@H]3O[C@H](CO)[C@@H](O)[C@H](O)[C@@H]3O)nc2)c2ccc(OC(F)F)c(OC3CC3)c2)cn1 [Compound 20, (2R,3S,4S,5S,6R)-2-((5-((S)-2-(3-cyclopropoxy-4-(difluoromethoxy)phenyl)-2-(6-(2-hydroxypropan-2-yl)pyridin-3-yl)ethyl)pyridin-2-yl)oxy)-6-(hydroxymethyl)tetrahydro-2H-pyran-3,4,5-triol]",0.0,0.2
"CN(C)[C@H]1[C@H](Oc2ccc(C[C@@H](c3ccc(OC(F)F)c(OC4CC4)c3)c3cnc(C(O)(C(F)(F)F)C(F)(F)F)s3)cn2)O[C@H](CO)[C@@H](O)[C@@H]1O [Compound 27, (2R,3S,4R,5R,6S)-6-((5-((S)-2-(3-cyclopropoxy-4-(difluoromethoxy)phenyl)-2-(2-(1,1,1,3,3,3-hexafluoro-2-hydroxypropan-2-yl)thiazol-5-yl)ethyl)pyridin-2-yl)oxy)-5-(dimethylamino)-2-(hydroxymethyl)tetrahydro-2H-pyran-3,4-diol]",93,2.4
"CC(=O)OC[C@H]1O[C@@H](O[C@H]2[C@H](OC(C)=O)[C@@H](OC(C)=O)[C@H](Oc3ccc(C[C@H](c4ccc(C(C)(C)O)nc4)c4ccc(OC(F)F)c(OC5CC5)c4)cn3)O[C@@H]2COC(C)=O)[C@H](OC(C)=O)[C@@H](OC(C)=O)[C@@H]1OC(C)=O [Compound 30, (2R,3R,4S,5R,6S)-2-(acetoxymethyl)-6-(((2R,3R,4S,5R,6S)-4,5-diacetoxy-2-(acetoxymethyl)-6-((5-((S)-2-(3-cyclopropoxy-4-(difluoromethoxy)phenyl)-2-(6-(2-hydroxypropan-2-yl)pyridin-3-yl)ethyl)pyridin-2-yl)oxy)tetrahydro-2H-pyran-3-yl)oxy)tetrahydro-2H-pyran-3,4,5-triyl triacetate]",10,0.5
